Source: patent publication US20240350430A1, “GROWTH INHIBITOR OF METASTATIC HUMAN PROSTATE CANCER CELLS” (Watanabe Oyster Laboratory Co., Ltd., priority 2021, published 2024)

Key:
PC-3 cells = assay: Cell migration scratch assay, PC-3 cells; type: cell-based, human; conditions: DHMBA 1, 10, 100, or 1000 μM, 48 hours
Protocol: The migration of the prostate cancer PC-3 and DU-145 cells was examined using a scratch assay. The PC-3 and DU-145 cells (the cell number of 2×10^5/in 1 ml of a culture fluid per hole using a 24-hole plate) were cultured in a DMEM culture fluid containing 10% of FBS, 1% of P/S, and 1% of fungizone under 5% of CO2, at 37° C., for 48 hours, and a straight line scratch was performed using a pipette tip (200 μl) when the cells reached confluence. Free cells were washed with PBS to be removed, the above-described culture fluid (containing 0.1, 1, 10, 100, or 1000 μM of the DHMBA) was added, and the cells were cultured for 48 hours. After the culture, intervals of cell-free parts were measured.
The PC-3 and DU-145 cells (the cell number of 2× 10^5/1 ml of a culture fluid per hole using a 24-hole plate) were cultured under 5% of CO2, at 37° C., for 48 hours in a DMEM culture fluid containing 10% of FBS, 1% of P/S, and 1% of fungizone, and a straight line scratch was performed using a pipette tip (200 μl) when the cells reached confluence. Free cells were washed with PBS to be removed, the above-described culture fluid (containing 0.1, 1, 10, 100, or 1000 μM of the DHMBA) was added, and the cells were cultured for 48 hours. After the culture, intervals of cell-free parts were measured. […]

DU-145 cells = assay: Cell growth of DU-145 cells (cell counting); type: cell-based, human; conditions: DHMBA 10 μM, one to six days
Protocol: The PC-3 and DU-145 cells (the cell number of 1×10^5/in 1 ml of a culture fluid per hole using a 24-hole plate) were cultured in a DMEM culture fluid (containing 10% of FBS, 1% of P/S, and 1% of fungizone) containing the DHMBA (1 and 10 μM) under 5% of CO2, at 37° C., for one, two, three, four, and six days. […] After the culture, 0.1 ml of 0.05% trypsin-EDTA solution obtained by dissolving the cells adhering to the bottom surface of the culture dish in PBS (Thermo Fisher Scientific, Waltham, MA, USA) not containing Ca^2+/Mg^2+ was added, incubation was performed at 37° C. for two minutes to release the adhering cells, and 0.9 ml of the DMEM culture fluid containing 10% of FBS and 1% of P/S was added to stop the reaction. The cell number in the cell suspension was counted by the method described in the item of “Measurement of Cell Number.”
After the culture of the cells, 0.1 ml of 0.05% trypsin-EDTA solution obtained by dissolving the cells adhering to the bottom surface of the culture dish in PBS (Thermo Fisher Scientific, Waltham, MA, USA) not containing Ca^2+/Mg^2+ was added, incubation was performed at 37° C. for two minutes to release the adhering cells, and 0.9 ml of the DMEM culture fluid containing 10% of FBS and 1% of P/S was added to stop the reaction. The visible cells were counted by the Olympus MTV-3 microscope using a hemocytometer (Sigma-Aldrich).
FIG. 2(C) is a diagram in which the DU-145 cells (1×10^5 cells/per well of a 24-well plate) were cultured under 5% of CO2, at 37° C., for one to six days in a DMEM culture fluid (containing 10% of FBS, 1% of P/S, and 1% of fungizone) containing the DHMBA (10 μM).
In FIGS. 2(D) and 2(E), the DU-145 cells (1×10^5 cells/per well of a 24-well plate) were cultured under 5% of CO2, at 37° C., for three (FIG. 2D) and six (FIG. 2E) days in a DMEM culture fluid (containing 10% of FBS, 1% of P/S, and 1% of fungizone) containing the DHMBA (0.01, 0.1, 1, 10, 100, and 1000 μM). After the culture, the cells adhered to the dish were removed and counted. […] 1-way ANOVA, Tukey-Kramer post-test.

With `COc1c(O)cc(CO)cc1O` [DHMBA, 3,5-dihydroxy-4-methoxybenzyl alcohol] the migration (PC-3 cells) was “significantly inhibited” and the cell growth (DU-145 cells) was “inhibited”.
